Source: publication PMC6018554, “2-[2-(4-(trifluoromethyl)phenylamino)thiazol-4-yl]acetic acid (Activator-3) is a potent activator of AMPK” (Scientific Reports, 2018)

What was measured:
[1] = molecular target: T1, recombinant human AMPK α1β1γ1 (Homo sapiens, UniProt P54619); assay: In vitro AMP kinase assay (pACC ELISA), α1β1γ1; format: biochemical; conditions: AMP 1 µM to 300 µM with Activator-3 30 nM
T1 construct: purchased SignalChem P47-10H-05/P48-10H-05 (for all four isozymes together); host or cells: baculovirus expression
Source text: Having observed the effect of Activator-3 on the activation of AMPK in cell based assays, we next examined whether Activator-3 could activate AMPK directly or not. […] The activity of recombinant human AMPK (α1β1γ1, α2β1γ1, α2β2γ2 and α2β2γ3) in the presence of vehicle was considered as 100%. The EC50 of Activator-3 for the activation of α1β1γ1, α2β1γ1 and α2β2γ2 isozymes were similar. However, the activity of Activator-3 against α2β2γ3 was marginally higher (Fig. 1C).
(§1) A high binding Enzyme Immuno Assay (EIA) 96-well plate (Sigma: Cat# CLS3590) was coated with Acetyl CoA Carboxylase 2 (ACC: 175–271 amino acids) peptide, a direct substrate for AMPK, 100 ng per well (1:1000 ratio, Cat# 12–491, Upstate biotechnology) and incubated overnight at 25 °C. Reaction mixture was incubated at 30 °C for 2 h and reaction was stopped by washing the plate with 0.05% Tween 20 followed by incubation with pACC primary antibody and rabbit secondary antibody as described in cell based ELISA section. Assay buffer is composed of 10 mM DTT, 100 mM magnesium acetate, 50 μM ATP and 10 mM HEPES.

PFK1 = assay: PFK activity assay kit; format: biochemical; conditions: AMP at 100 µM and 1 mM
[2] = system: human recombinant α1β1γ1 AMPK γ1 mutants (R70G, R152G); assay: In vitro kinase assay with mutant AMPK pulled down from HEK-293T cells; format: biochemical; conditions: 100 µM AMP; γ1 mutants
Protocol: as §1
(§2) R70 and R152 residues in AMPK γ1 subunit (pDONR223-PRKAG1: purchased from addgene, cat# plasmid#23718) are mutated to glycine using overlapping extension PCR. Subsequently, the mutants were transferred into a triple tagged destination vector (Streptavidin, Flag and Biotin; SFB-pDEST) by using gateway cloning technology. The mutant DNA was transfected into HEK-293T cells using PEI following standard procedures. After 4 h of transfection, media was changed to DMEM containing 10% FBS. Cells were lysed in TENNS lysis buffer (20 mM Tris pH:8.0, 100 mM NaCl, 1 mM EDTA, 10 mM Na2H2P2O7, 10 mM NaF, 10 mM Na3VO4, 0.5% NP40) and subjected to pull down using streptavidin beads followed by biotin elution. To protect the protein from dephosphorylation, cells were treated with 500 μM AICAR prior to lysis. This purified protein was estimated by using nanodrop and taken for in vitro kinase assay to check whether Activator-3 is binding to the mutant AMPK or not, and the activity of the mutant protein was assessed by comparing with the wild type protein activity.

[3] = molecular target: T2, human recombinant α1β1γ1 AMPK γ1 mutants (R70G, R152G) (Homo sapiens, UniProt P54619, R70G); assay: as above; format: biochemical; conditions: 100 µM AMP; γ1 R70G
T2 construct: SFB triple tag (Streptavidin, Flag and Biotin; SFB-pDEST); host or cells: HEK-293T, streptavidin-bead pull-down with biotin elution
Protocol: as §1, §2

[4] = molecular target: T3, recombinant human AMPK α2β2γ2 (Homo sapiens, UniProt Q9UGJ0); set-up: method as in PMID 28705990; conditions: cited from earlier work
T3 construct: purchased SignalChem; host or cells: baculovirus expression
T3 sequence (Q9UGJ0 whole entry): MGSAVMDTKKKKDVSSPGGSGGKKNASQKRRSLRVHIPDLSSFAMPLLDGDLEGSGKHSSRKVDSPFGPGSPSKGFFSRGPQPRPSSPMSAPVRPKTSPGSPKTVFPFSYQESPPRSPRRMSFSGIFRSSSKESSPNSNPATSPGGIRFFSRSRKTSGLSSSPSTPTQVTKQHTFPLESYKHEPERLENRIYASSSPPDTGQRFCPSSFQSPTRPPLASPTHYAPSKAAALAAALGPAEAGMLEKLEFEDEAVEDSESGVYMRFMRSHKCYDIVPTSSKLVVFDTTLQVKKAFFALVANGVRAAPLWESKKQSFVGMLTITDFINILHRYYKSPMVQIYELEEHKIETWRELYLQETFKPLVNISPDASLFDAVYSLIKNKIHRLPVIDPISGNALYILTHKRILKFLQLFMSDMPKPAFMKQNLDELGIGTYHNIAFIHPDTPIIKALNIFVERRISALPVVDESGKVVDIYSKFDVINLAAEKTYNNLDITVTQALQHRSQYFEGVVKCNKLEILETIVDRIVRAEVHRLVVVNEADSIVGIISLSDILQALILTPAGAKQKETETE
T3 sequence (P54646 whole entry partner): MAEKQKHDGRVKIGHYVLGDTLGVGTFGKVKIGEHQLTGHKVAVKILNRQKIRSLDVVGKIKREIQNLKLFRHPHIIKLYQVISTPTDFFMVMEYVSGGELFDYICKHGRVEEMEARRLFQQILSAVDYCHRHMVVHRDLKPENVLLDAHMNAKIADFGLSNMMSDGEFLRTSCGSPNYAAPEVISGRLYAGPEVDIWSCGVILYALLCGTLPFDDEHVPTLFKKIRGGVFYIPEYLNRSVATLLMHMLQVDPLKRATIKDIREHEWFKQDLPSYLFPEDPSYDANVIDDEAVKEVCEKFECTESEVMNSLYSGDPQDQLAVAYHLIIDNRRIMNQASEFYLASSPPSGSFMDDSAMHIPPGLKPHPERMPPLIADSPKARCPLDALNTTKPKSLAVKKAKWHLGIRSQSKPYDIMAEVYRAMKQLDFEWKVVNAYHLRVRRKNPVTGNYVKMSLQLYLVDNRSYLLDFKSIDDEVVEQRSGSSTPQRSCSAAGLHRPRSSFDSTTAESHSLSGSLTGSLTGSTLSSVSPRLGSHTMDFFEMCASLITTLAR
T3 sequence (O43741 whole entry partner): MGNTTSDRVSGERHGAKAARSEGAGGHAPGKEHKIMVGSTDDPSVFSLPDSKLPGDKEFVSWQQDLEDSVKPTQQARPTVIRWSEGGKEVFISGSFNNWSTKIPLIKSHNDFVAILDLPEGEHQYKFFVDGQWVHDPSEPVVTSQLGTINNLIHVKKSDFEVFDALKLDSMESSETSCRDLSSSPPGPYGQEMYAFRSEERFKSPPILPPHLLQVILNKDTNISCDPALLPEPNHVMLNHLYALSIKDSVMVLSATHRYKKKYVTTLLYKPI

T1 sequence (P54619 whole entry): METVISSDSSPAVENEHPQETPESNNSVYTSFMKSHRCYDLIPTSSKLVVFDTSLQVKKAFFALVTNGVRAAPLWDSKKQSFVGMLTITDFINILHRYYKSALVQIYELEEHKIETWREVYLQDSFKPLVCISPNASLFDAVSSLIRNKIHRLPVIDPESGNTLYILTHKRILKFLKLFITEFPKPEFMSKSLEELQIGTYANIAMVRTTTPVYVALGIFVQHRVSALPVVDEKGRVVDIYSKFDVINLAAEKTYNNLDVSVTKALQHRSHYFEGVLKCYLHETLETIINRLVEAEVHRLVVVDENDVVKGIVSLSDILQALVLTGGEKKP
T1 sequence (Q13131 whole entry partner): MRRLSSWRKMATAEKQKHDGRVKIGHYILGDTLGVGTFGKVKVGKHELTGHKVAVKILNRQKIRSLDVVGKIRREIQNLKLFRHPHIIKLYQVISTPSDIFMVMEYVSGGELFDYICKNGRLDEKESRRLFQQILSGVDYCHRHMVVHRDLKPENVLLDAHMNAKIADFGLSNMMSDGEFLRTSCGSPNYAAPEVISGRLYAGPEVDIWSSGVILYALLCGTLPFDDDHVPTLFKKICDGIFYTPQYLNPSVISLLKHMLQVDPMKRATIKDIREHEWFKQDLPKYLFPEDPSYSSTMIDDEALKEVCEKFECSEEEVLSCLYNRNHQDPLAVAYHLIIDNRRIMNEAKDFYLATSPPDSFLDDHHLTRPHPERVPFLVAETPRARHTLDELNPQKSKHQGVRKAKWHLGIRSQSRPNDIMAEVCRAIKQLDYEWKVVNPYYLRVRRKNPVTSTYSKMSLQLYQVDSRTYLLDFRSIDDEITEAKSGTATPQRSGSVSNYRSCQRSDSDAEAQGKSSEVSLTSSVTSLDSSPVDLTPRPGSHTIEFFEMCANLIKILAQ
T1 sequence (Q9Y478 whole entry partner): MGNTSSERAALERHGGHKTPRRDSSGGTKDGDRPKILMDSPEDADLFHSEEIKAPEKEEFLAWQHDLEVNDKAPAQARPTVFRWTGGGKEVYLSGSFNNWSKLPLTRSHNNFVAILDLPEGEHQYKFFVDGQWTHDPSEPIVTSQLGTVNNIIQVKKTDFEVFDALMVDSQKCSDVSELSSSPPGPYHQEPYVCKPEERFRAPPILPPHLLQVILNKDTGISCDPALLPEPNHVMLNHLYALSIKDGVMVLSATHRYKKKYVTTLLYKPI
T2 sequence (P54619 whole entry R70G): as the sequence (P54619 whole entry) above, with R70G counted along it
T2 sequence (Q13131 whole entry partner): as the sequence (Q13131 whole entry partner) above
T2 sequence (Q9Y478 2-270 partner): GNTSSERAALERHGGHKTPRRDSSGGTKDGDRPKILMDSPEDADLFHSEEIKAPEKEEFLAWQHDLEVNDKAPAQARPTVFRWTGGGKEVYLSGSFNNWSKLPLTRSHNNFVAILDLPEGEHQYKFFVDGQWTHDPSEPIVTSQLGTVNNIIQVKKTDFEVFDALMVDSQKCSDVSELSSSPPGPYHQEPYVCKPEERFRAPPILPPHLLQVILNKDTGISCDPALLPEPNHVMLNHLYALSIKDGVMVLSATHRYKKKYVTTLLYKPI

α1β1γ1 activity compared to 30 nM Activator-3 alone [1]	activation of AMPK, effect of R70G mutation [3]	Structure (SMILES)	effect on PFK1 activity (PFK1)	AMPK activity of mutant proteins vs wild type [2]	Emax compared to basal activity [4]
progressive enhancement	did not impact	Nc1ncnc2c1ncn2C1OC(COP(=O)(O)O)C(O)C1O (centres unmarked) [AMP, reference compound]	activated	significant reduction	
		O[C@@H]1CO[C@H]2[C@@H]1OC[C@H]2Oc1nc2nc(-c3ccc(-c4ccccc4)cc3)c(Cl)cc2[nH]1 [MK-8722]			~ 250%
